Primed or numbered codes have the meaning given here. Where no end group is shown, it is not given here. Side-chain parts run from the residue outwards. The star is where a group is joined. Dnp = O=[N+]([O-])c1ccc(*)c([N+](=O)[O-])c1; PEG12′ = not defined here

In the test the test system is HeLa cells (tumor spheroids). Briefly: Complement-mediated killing of tumor spheroids (anti-DNP antibody or human IgM, human serum with active complement, PI staining). Format: cell-based. To be noted: 5 µM construct 1 hour PBS pH6.5, anti-DNP antibody or human IgM 1 hr pH7.4, human serum with active complement and PI, FIG. 8, imaged 2 hours after treatment. On the procedure:
The key for induction of immunological response is a proper positioning of epitope at the surface of tumor cells, which was verified on 3-D tumor cancer cell culture (tumor spheroids). Briefly, a 2% agarose solution was made by dissolving in pH 7.4 PBS. 150 μL of the solution was pipetted into each well of a 48-well flat bottom tissue culture plate. After the agarose gel sufficiently settled (˜1 h), 150 μL of DMEM supplemented with 10% FBS and ciprofloxacin-HCl was added to each well. The covered plate was left in a humidified atmosphere at 37° C. and 5% CO2 in cell culture incubator for 24 h. On the next day, the excess medium was removed from the agarose layer. HeLa cells (10,000 cells) in 200 μL of DMEM containing 2% matrigel were added into each well and incubated for 3-4 days to allow the formation of spheroids. Matrigel was dissolved on ice overnight and added in ice cold DMEM at a concentration of 2.5% (to obtain a final concentration of 2% once added to the wells). Then the mixture was heated to 37° C. before being combined with the cells. […] After treatment, the spheroids were washed several times in 1 mL of PBS. Next, spheroids were treated with anti-DNP antibody labeled with 647 nm fluorescent dye at pH 7.4 followed by washing. Spheroids were also stained with DAPI to mark cell nucleus. […]

As to “DNP-PEG12-pHLIP®: DNP-PEG12-NHS conjugated with single Lys residue at N-terminal of pHLIP® peptide Ac-AKDDQNPWRAYLDLLFPTDTLLLDLLWA (SEQ ID NO: 510) (Ac-AK([PEG12′-Dnp])DDQNPWRAYLDLLFPTDTLLLDLLWA)”, the “PI staining (red color) of dead or dying cells after complement-mediated attack” value is “plasma membrane of cells was comrpomized by complement-mediated attack and that the cells were dying”.

Values taken from patent US12285462B2, “pH-triggered membrane peptide-mediated epitope tethering at cell surfaces” (UNIVERSITY OF RHODE ISLAND BOARD OF TRUSTEES, priority 2019, dated 2025).
